Experiment [1] deals with T1, Phosphatidylinositol 4,5-bisphosphate 3-kinase catalytic subunit delta isoform (Homo sapiens, UniProt O00329).
T1 sequence (O00329 whole entry): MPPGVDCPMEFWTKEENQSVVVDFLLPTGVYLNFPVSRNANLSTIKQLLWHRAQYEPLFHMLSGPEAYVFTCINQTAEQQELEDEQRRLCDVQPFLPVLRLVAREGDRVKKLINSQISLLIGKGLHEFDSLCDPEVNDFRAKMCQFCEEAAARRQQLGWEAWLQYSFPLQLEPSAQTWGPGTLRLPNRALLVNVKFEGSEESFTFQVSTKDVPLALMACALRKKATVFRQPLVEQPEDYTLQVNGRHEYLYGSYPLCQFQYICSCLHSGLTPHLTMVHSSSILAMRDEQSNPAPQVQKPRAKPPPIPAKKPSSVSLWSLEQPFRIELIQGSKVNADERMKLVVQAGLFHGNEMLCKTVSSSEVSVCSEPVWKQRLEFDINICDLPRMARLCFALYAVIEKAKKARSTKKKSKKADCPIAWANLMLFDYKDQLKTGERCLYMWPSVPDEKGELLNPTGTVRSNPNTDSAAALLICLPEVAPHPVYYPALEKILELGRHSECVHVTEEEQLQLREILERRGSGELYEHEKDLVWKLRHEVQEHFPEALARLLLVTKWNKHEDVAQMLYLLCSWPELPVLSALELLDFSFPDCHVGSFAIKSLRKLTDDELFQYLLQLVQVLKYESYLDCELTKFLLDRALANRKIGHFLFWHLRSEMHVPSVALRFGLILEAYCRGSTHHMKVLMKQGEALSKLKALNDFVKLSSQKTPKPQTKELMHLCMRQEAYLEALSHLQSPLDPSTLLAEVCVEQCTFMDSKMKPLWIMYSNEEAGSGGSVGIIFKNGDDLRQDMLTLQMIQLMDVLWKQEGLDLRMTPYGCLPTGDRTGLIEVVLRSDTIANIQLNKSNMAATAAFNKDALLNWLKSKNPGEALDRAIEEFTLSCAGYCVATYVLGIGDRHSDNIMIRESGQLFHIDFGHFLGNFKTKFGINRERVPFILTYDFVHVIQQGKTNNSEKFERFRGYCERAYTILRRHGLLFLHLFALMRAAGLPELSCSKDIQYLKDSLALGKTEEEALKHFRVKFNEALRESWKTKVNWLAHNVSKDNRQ
Description: Inhibition of PI3Kdelta in human PBMC assessed as reduction in anti-human CD28 antibody stimulated IL-6 secretion levels after 72 hrs by ELISA

In experiment [2] the target is PI3-kinase p110-delta/p85-alpha (Homo sapiens, UniProt O00329). Description: Inhibition of human recombinant full length N-terminal His6-tagged PI3K p110delta/p85alpha expressed in baculovirus infected Sf9 insect cells using PI:PS as substrate after 60 mins by ADP-Glo assay. Background: ADP-Glo turns the ADP formed in a reaction into a luminescent signal.
Sequence of PI3-kinase p110-delta/p85-alpha (P27986 whole entry, one chain of several): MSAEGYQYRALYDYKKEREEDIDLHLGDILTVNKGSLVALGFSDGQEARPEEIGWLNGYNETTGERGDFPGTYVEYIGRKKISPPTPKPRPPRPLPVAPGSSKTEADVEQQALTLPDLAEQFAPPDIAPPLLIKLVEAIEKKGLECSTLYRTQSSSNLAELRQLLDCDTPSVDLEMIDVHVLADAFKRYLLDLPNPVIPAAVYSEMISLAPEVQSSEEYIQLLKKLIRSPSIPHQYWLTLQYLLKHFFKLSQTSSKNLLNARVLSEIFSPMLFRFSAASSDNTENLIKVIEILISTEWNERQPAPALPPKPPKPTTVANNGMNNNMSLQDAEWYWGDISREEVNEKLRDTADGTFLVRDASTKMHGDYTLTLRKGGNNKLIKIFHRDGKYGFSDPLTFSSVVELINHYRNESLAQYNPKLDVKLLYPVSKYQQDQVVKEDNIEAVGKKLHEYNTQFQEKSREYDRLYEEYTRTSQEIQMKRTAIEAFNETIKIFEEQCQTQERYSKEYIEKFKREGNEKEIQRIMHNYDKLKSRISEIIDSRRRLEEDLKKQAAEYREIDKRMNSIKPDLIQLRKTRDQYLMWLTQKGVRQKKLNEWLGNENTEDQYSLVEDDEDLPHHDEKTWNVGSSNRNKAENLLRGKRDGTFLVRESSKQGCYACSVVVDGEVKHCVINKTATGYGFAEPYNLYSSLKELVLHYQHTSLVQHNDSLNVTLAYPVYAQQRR

Consider `Cc1cccc2nc(Cn3cnc4c(N)ncnc43)n(-c3ccccc3)c(=O)c12`, for which half-maximal inhibition in experiment [1] (IC50) was put at 50.1 nM. Besides, the Ki (usually a measure of affinity in units of concentration, obtained from inhibition or displacement) in experiment [2] is 25.1 nM. For `Cc1ccccc1-n1c([C@H](C)n2cnc3c(N)ncnc32)nc2cccc(C)c2c1=O` (stereo in doubt; form 1), the concentration for half-maximal inhibition (IC50) (in general, the concentration needed to halve the response being measured) in experiment [1] was 6.31 nM. In addition, the inhibition constant Ki in experiment [2] is 3.16 nM. In the case of `Cc1ccccc1-n1c([C@@H](C)n2cnc3c(N)ncnc32)nc2cccc(C)c2c1=O` (stereo in doubt; form 1), the Ki in experiment [2] was 126 nM. In experiment [1], `Cc1ccccc1-n1c([C@H](C)n2cnc3c(N)ncnc32)nc2cccc(C)c2c1=O` (stereo in doubt; form 2) showed an IC50 of 1.26 nM. Also, the Ki in experiment [2] was 1.58 nM.

For `Cc1ccccc1-n1c([C@@H](C)n2cnc3c(N)ncnc32)nc2cccc(C)c2c1=O` (stereo in doubt; form 2), the Ki in experiment [2] was 12.6 nM.
